Data: publication PMC8667885, “2-Aminobenzoxazole-appended coumarins as potent and selective inhibitors of tumour-associated carbonic anhydrases” (Journal of Enzyme Inhibition and Medicinal Chemistry, 2021)

system: SW1573 (non-small cell lung); test: antiproliferative assay (NCI protocol), SW1573; assay type: cell-based, human; conditions: Homo sapiens, SW1573; antiproliferative activity
Protocol: (§1) The antiproliferative assays were conducted following the protocol of the US National Cancer Institute (NCI), with minor modifications.
(§2) The coumarin-benzoxazole hybrids were also tested as antiproliferative agents against a panel of six human solid tumour cell lines (Table 2): A549 (non-small cell lung), HBL-100 (breast), HeLa (cervix), SW1573 (non-small cell lung) as examples of drug-sensitive lines, and T-47D (breast) and WiDr (colon) as multidrug-resistant lines. A non-tumour cell line (BJ-hTert, human fibroblasts) was also used for analysing the selectivity. Chemotherapeutic agents 5-fluorouracyl (5-FU) and cisplatin (CDDP) were included in the study as drug references.

Structure (SMILES)	GI50 [µM]
O=c1cc(-c2ccccc2)c2ccc(OCCCCCCNc3nc4ccccc4o3)cc2o1 [Compound 8f]	> 100
Cc1ccc2oc(NCCCCCOc3ccc4c(C)cc(=O)oc4c3)nc2c1 [Compound 8g]	> 100
Cc1cc(=O)oc2cc(OCCCCCNc3nc4cc(Br)ccc4o3)ccc12 [Compound 8h]	14 ± 1

molecular target: human CA I (Homo sapiens, UniProt P00915); test: stopped-flow CO2 hydrase assay, CA I; conditions: not given
Sequence (P00915 whole entry): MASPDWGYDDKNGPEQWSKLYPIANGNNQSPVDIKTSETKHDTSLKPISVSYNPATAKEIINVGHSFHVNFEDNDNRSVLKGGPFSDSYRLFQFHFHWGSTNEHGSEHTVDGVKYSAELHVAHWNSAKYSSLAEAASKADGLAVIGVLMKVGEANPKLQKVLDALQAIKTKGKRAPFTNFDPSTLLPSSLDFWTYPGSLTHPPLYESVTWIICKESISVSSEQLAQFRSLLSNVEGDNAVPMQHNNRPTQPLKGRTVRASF

Ki [µM]	Structure (SMILES)
> 10	O=c1cc(-c2ccccc2)c2ccc(OCCCCCCNc3nc4ccccc4o3)cc2o1 [Compound 8f]
> 10	Cc1ccc2oc(NCCCCCOc3ccc4c(C)cc(=O)oc4c3)nc2c1 [Compound 8g]
> 10	Cc1cc(=O)oc2cc(OCCCCCNc3nc4cc(Br)ccc4o3)ccc12 [Compound 8h]

system: BJ-hTert, human fibroblasts; test: antiproliferative assay (NCI protocol), non-tumour BJ-hTert; assay type: cell-based; conditions: Fibroblast; non-tumour cell line, human fibroblasts
Protocol: as §1, §2

Structure (SMILES)	GI50 [µM]
O=c1cc(-c2ccccc2)c2ccc(OCCCCCCNc3nc4ccccc4o3)cc2o1 [Compound 8f]	> 100
Cc1ccc2oc(NCCCCCOc3ccc4c(C)cc(=O)oc4c3)nc2c1 [Compound 8g]	> 100
Cc1cc(=O)oc2cc(OCCCCCNc3nc4cc(Br)ccc4o3)ccc12 [Compound 8h]	> 100

system: A549 (non-small cell lung); test: antiproliferative assay (NCI protocol), A549; assay type: cell-based, human; conditions: Homo sapiens, A549; antiproliferative activity
Protocol: as §1, §2

Structure (SMILES)	GI50 [µM]
O=c1cc(-c2ccccc2)c2ccc(OCCCCCCNc3nc4ccccc4o3)cc2o1 [Compound 8f]	> 100
Cc1ccc2oc(NCCCCCOc3ccc4c(C)cc(=O)oc4c3)nc2c1 [Compound 8g]	> 100
Cc1cc(=O)oc2cc(OCCCCCNc3nc4cc(Br)ccc4o3)ccc12 [Compound 8h]	6.5 ± 3.1

molecular target: human CA II (Homo sapiens, UniProt P00918); test: stopped-flow CO2 hydrase assay, CA II; conditions: not given

Ki [µM]	Structure (SMILES)
> 10	O=c1cc(-c2ccccc2)c2ccc(OCCCCCCNc3nc4ccccc4o3)cc2o1 [Compound 8f]
> 10	Cc1ccc2oc(NCCCCCOc3ccc4c(C)cc(=O)oc4c3)nc2c1 [Compound 8g]
> 10	Cc1cc(=O)oc2cc(OCCCCCNc3nc4cc(Br)ccc4o3)ccc12 [Compound 8h]

molecular target: human CA XII (Homo sapiens, UniProt O43570); test: stopped-flow CO2 hydrase assay, CA XII; conditions: not given
Sequence (O43570 25-354): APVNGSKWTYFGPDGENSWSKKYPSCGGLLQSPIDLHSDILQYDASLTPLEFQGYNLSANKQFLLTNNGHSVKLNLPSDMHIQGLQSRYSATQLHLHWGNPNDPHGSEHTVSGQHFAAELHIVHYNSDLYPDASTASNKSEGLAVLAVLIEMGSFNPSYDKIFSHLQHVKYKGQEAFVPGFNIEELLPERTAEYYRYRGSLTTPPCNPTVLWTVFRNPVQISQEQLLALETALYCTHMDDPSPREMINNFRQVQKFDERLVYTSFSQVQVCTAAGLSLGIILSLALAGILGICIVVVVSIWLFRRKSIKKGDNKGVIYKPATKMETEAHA

Ki [nM]	Structure (SMILES)
316	O=c1cc(-c2ccccc2)c2ccc(OCCCCCCNc3nc4ccccc4o3)cc2o1 [Compound 8f]
67.3	Cc1ccc2oc(NCCCCCOc3ccc4c(C)cc(=O)oc4c3)nc2c1 [Compound 8g]
80.7	Cc1cc(=O)oc2cc(OCCCCCNc3nc4cc(Br)ccc4o3)ccc12 [Compound 8h]

same assay, conditions: ratio of Ki CA I / CA XII

Selectivity ratio I/XII	Structure (SMILES)
>31.6	O=c1cc(-c2ccccc2)c2ccc(OCCCCCCNc3nc4ccccc4o3)cc2o1 [Compound 8f]
>148.6	Cc1ccc2oc(NCCCCCOc3ccc4c(C)cc(=O)oc4c3)nc2c1 [Compound 8g]
>123.9	Cc1cc(=O)oc2cc(OCCCCCNc3nc4cc(Br)ccc4o3)ccc12 [Compound 8h]

same assay, conditions: ratio of Ki CA II / CA XII

Selectivity ratio II/XII	Structure (SMILES)
>31.6	O=c1cc(-c2ccccc2)c2ccc(OCCCCCCNc3nc4ccccc4o3)cc2o1 [Compound 8f]
>148.6	Cc1ccc2oc(NCCCCCOc3ccc4c(C)cc(=O)oc4c3)nc2c1 [Compound 8g]
>123.9	Cc1cc(=O)oc2cc(OCCCCCNc3nc4cc(Br)ccc4o3)ccc12 [Compound 8h]

same assay, conditions: versus 8c

impairment of inhibition of CA XII compared to Me-counterpart 8c [fold]	Structure (SMILES)
5	O=c1cc(-c2ccccc2)c2ccc(OCCCCCCNc3nc4ccccc4o3)cc2o1 [Compound 8f]

molecular target: human CA IX (Homo sapiens, UniProt Q16790); test: stopped-flow CO2 hydrase assay, CA IX; conditions: not given

Ki [nM]	Structure (SMILES)
271	O=c1cc(-c2ccccc2)c2ccc(OCCCCCCNc3nc4ccccc4o3)cc2o1 [Compound 8f]
417	Cc1ccc2oc(NCCCCCOc3ccc4c(C)cc(=O)oc4c3)nc2c1 [Compound 8g]
757	Cc1cc(=O)oc2cc(OCCCCCNc3nc4cc(Br)ccc4o3)ccc12 [Compound 8h]

same assay, conditions: ratio of Ki CA I / CA IX

Selectivity ratio I/IX	Structure (SMILES)
>36.9	O=c1cc(-c2ccccc2)c2ccc(OCCCCCCNc3nc4ccccc4o3)cc2o1 [Compound 8f]
>24.0	Cc1ccc2oc(NCCCCCOc3ccc4c(C)cc(=O)oc4c3)nc2c1 [Compound 8g]
>13.2	Cc1cc(=O)oc2cc(OCCCCCNc3nc4cc(Br)ccc4o3)ccc12 [Compound 8h]

same assay, conditions: ratio of Ki CA II / CA IX

Selectivity ratio II/IX	Structure (SMILES)
>36.9	O=c1cc(-c2ccccc2)c2ccc(OCCCCCCNc3nc4ccccc4o3)cc2o1 [Compound 8f]
>24.0	Cc1ccc2oc(NCCCCCOc3ccc4c(C)cc(=O)oc4c3)nc2c1 [Compound 8g]
>13.2	Cc1cc(=O)oc2cc(OCCCCCNc3nc4cc(Br)ccc4o3)ccc12 [Compound 8h]

same assay, conditions: versus 8b

decreased activity against CA IX compared to non-substituted counterpart 8b [fold]	Structure (SMILES)
6	Cc1ccc2oc(NCCCCCOc3ccc4c(C)cc(=O)oc4c3)nc2c1 [Compound 8g]
11	Cc1cc(=O)oc2cc(OCCCCCNc3nc4cc(Br)ccc4o3)ccc12 [Compound 8h]

same assay, conditions: versus 8c

impairment of inhibition of CA IX compared to Me-counterpart 8c [fold]	Structure (SMILES)
3	O=c1cc(-c2ccccc2)c2ccc(OCCCCCCNc3nc4ccccc4o3)cc2o1 [Compound 8f]

system: panel of six human solid tumour cell lines; test: antiproliferative assay, whole panel of tumour cell lines; assay type: cell-based; conditions: not given
Protocol: as §1, §2

Structure (SMILES)	antiproliferative activity against all cell lines (in words)
O=c1cc(-c2ccccc2)c2ccc(OCCCCCCNc3nc4ccccc4o3)cc2o1 [Compound 8f]	completely abolished activity against all cell lines
Cc1ccc2oc(NCCCCCOc3ccc4c(C)cc(=O)oc4c3)nc2c1 [Compound 8g]	completely abolished activity against all cell lines

molecular target: human CA IV (Homo sapiens, UniProt P22748); test: stopped-flow CO2 hydrase assay, CA IV; conditions: not given
Sequence (P22748 19-312): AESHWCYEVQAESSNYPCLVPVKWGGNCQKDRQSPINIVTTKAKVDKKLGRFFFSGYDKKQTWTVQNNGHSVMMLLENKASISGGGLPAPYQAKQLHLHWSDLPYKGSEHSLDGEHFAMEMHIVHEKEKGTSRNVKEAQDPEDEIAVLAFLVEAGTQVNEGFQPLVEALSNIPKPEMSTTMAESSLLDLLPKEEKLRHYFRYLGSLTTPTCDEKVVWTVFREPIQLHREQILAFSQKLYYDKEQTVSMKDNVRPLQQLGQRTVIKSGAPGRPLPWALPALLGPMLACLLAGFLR

Ki [nM]	Structure (SMILES)
808	O=c1cc(-c2ccccc2)c2ccc(OCCCCCCNc3nc4ccccc4o3)cc2o1 [Compound 8f]
762	Cc1ccc2oc(NCCCCCOc3ccc4c(C)cc(=O)oc4c3)nc2c1 [Compound 8g]
792	Cc1cc(=O)oc2cc(OCCCCCNc3nc4cc(Br)ccc4o3)ccc12 [Compound 8h]

system: T-47D (breast); test: antiproliferative assay (NCI protocol), T-47D; assay type: cell-based, human; conditions: Homo sapiens, T47D; antiproliferative activity, multidrug-resistant line
Protocol: as §1, §2

Structure (SMILES)	GI50 [µM]
O=c1cc(-c2ccccc2)c2ccc(OCCCCCCNc3nc4ccccc4o3)cc2o1 [Compound 8f]	> 100
Cc1ccc2oc(NCCCCCOc3ccc4c(C)cc(=O)oc4c3)nc2c1 [Compound 8g]	> 100
Cc1cc(=O)oc2cc(OCCCCCNc3nc4cc(Br)ccc4o3)ccc12 [Compound 8h]	32 ± 7

system: WiDr (colon); test: antiproliferative assay (NCI protocol), WiDr; assay type: cell-based, human; conditions: Homo sapiens, WiDr; antiproliferative activity, multidrug-resistant line
Protocol: as §1, §2

Structure (SMILES)	GI50 [µM]
O=c1cc(-c2ccccc2)c2ccc(OCCCCCCNc3nc4ccccc4o3)cc2o1 [Compound 8f]	> 100
Cc1ccc2oc(NCCCCCOc3ccc4c(C)cc(=O)oc4c3)nc2c1 [Compound 8g]	> 100
Cc1cc(=O)oc2cc(OCCCCCNc3nc4cc(Br)ccc4o3)ccc12 [Compound 8h]	29 ± 1

molecular target: human CA VII (Homo sapiens, UniProt P43166); test: stopped-flow CO2 hydrase assay, CA VII; conditions: not given
Sequence (P43166 whole entry): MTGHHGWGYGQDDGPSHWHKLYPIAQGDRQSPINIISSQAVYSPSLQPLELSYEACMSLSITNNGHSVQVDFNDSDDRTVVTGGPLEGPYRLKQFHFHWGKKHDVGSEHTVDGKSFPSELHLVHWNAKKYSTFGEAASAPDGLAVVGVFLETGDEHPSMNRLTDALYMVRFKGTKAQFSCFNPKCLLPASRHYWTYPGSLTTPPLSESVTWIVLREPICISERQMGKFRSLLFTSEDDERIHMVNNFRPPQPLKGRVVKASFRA

Ki [µM]	Structure (SMILES)
> 10	O=c1cc(-c2ccccc2)c2ccc(OCCCCCCNc3nc4ccccc4o3)cc2o1 [Compound 8f]
> 10	Cc1ccc2oc(NCCCCCOc3ccc4c(C)cc(=O)oc4c3)nc2c1 [Compound 8g]
> 10	Cc1cc(=O)oc2cc(OCCCCCNc3nc4cc(Br)ccc4o3)ccc12 [Compound 8h]

system: HeLa (cervix); test: antiproliferative assay (NCI protocol), HeLa; assay type: cell-based, human; conditions: Homo sapiens, HeLa; antiproliferative activity
Protocol: as §1, §2

Structure (SMILES)	GI50 [µM]
O=c1cc(-c2ccccc2)c2ccc(OCCCCCCNc3nc4ccccc4o3)cc2o1 [Compound 8f]	> 100
Cc1ccc2oc(NCCCCCOc3ccc4c(C)cc(=O)oc4c3)nc2c1 [Compound 8g]	> 100
Cc1cc(=O)oc2cc(OCCCCCNc3nc4cc(Br)ccc4o3)ccc12 [Compound 8h]	16 ± 1

system: HBL-100 (breast); test: antiproliferative assay (NCI protocol), HBL-100; assay type: cell-based, human; conditions: Homo sapiens, HBL-100; antiproliferative activity
Protocol: as §1, §2

Structure (SMILES)	GI50 [µM]
O=c1cc(-c2ccccc2)c2ccc(OCCCCCCNc3nc4ccccc4o3)cc2o1 [Compound 8f]	> 100
Cc1ccc2oc(NCCCCCOc3ccc4c(C)cc(=O)oc4c3)nc2c1 [Compound 8g]	> 100
Cc1cc(=O)oc2cc(OCCCCCNc3nc4cc(Br)ccc4o3)ccc12 [Compound 8h]	23 ± 5
